According to the NIST ThermoML archive (doi:10.1016/j.fluid.2014.04.019):

Experiment: xn = mol fraction of the nth substance listed
Conditions: 101 kPa, Liquid

OCCOCCO [diethylene glycol] + CN(C)C=O
Conditions	kinematic viscosity, 298.15 K [m2/s]	kinematic viscosity, 303.15 K [m2/s]	kinematic viscosity, 308.15 K [m2/s]	kinematic viscosity, 313.15 K [m2/s]	kinematic viscosity, 318.15 K [m2/s]	mass density, 298.15 K [kg/m3]	mass density, 303.15 K [kg/m3]	mass density, 308.15 K [kg/m3]	mass density, 313.15 K [kg/m3]	mass density, 318.15 K [kg/m3]
x2 = 0	2.76e-05	2.13e-05	1.68e-05	1.45e-05	1.12e-05	1113	1109.2	1106.1	1103	1099.3
x2 = 0.0714	1.96e-05	1.53e-05	1.19e-05	1.07e-05	8.43e-06	1104.1	1100	1096.7	1093.4	1089.5
x2 = 0.1393	1.57e-05	1.24e-05	9.67e-06	8.49e-06	6.68e-06	1094.9	1090.8	1087.3	1083.9	1079.8
x2 = 0.2041	1.26e-05	1.01e-05	8.08e-06	7.39e-06	5.77e-06	1085.9	1081.9	1078.2	1074.6	1070.3
x2 = 0.2683	1.02e-05	8.29e-06	6.7e-06	6.18e-06	4.88e-06	1076.7	1072.6	1068.7	1065.1	1060.7
x2 = 0.3266	8.33e-06	6.84e-06	5.59e-06	5.2e-06	4.16e-06	1068.1	1063.9	1059.9	1056.2	1051.7
x2 = 0.3834	6.84e-06	5.68e-06	4.69e-06	4.4e-06	3.54e-06	1059.4	1055.2	1051	1047.3	1042.7
x2 = 0.4384	5.66e-06	4.76e-06	3.98e-06	3.74e-06	3.06e-06	1050.9	1046.5	1042.2	1038.5	1033.9
x2 = 0.4917	4.71e-06	4e-06	3.38e-06	3.2e-06	2.64e-06	1042.3	1037.9	1033.5	1029.7	1024.9
x2 = 0.5429	3.94e-06	3.38e-06	2.88e-06	2.75e-06	2.29e-06	1033.8	1029.4	1024.8	1021	1016.2
x2 = 0.5865	3.4e-06	2.93e-06	2.53e-06	2.41e-06	2.03e-06	1026.4	1022	1017.3	1013.4	1008.6
x2 = 0.6394	2.83e-06	2.47e-06	2.16e-06	2.07e-06	1.76e-06	1017.2	1012.7	1007.9	1004	999.1
x2 = 0.6819	2.44e-06	2.15e-06	1.89e-06	1.82e-06	1.56e-06	1009.5	1005	1000.1	996.2	991.2
x2 = 0.7294	2.08e-06	1.85e-06	1.64e-06	1.59e-06	1.37e-06	1000.7	996.1	991.1	987.1	982.1
x2 = 0.7721	1.8e-06	1.62e-06	1.44e-06	1.39e-06	1.22e-06	992.5	987.9	982.8	978.6	973.6
x2 = 0.813	1.57e-06	1.42e-06	1.28e-06	1.23e-06	1.09e-06	984.5	979.7	974.5	970.3	965.2
x2 = 0.8531	1.38e-06	1.25e-06	1.14e-06	1.1e-06	9.94e-07	976.4	971.5	966.3	962.1	956.9
x2 = 0.891	1.22e-06	1.12e-06	1.03e-06	9.92e-07	8.99e-07	968.5	963.6	958.3	954.1	948.9
x2 = 0.9288	1.08e-06	1e-06	9.23e-07	8.88e-07	8.16e-07	960.2	955.4	950	945.8	940.7
x2 = 0.9648	9.67e-07	9.04e-07	8.37e-07	8.06e-07	7.44e-07	952.2	947.6	942.3	937.9	932.6
